Experimental data from US8742082B2, “Compositions and methods for influencing satiety, lipid metabolism, and fat utilization” (Nestec S.A., priority 2008, dated 2014).

Legend:
Type in all cases: in vivo
[1] = system: Protein convertase subtilisin/kexin type 9 (PCSK 9); test: Real-time PCR gene expression in peripheral tissues: PCSK9; conditions: liver; C57bl6j mice, high fat diet, 100 mg/kg/body weight in diet, 5 weeks
Experimental: (§1) The expression of 45 genes was measured by real-time PCR in peripheral tissues to identify genes that were differentially expressed in response to oral administration of oleoylethanolamide (OEA) or a non-hydrolysable OEA analog (KDS 5104), which affect satiety, lipid metabolism, fat utilization, food intake, and body fat mass.
(§2) Animals, diet, and experimental design. Adult male C57bl6j mice purchased at 8 weeks of age were individually housed and maintained ad libitum on high fat diet and water for 2 weeks. Seven mice were randomly allocated in 3 groups and fed with a high fat diet (lipids represented 50% of daily energy) for 2 weeks. […]
(§3) RNA extraction and gene expression. […] The RNA concentration was determined on nanodrop from the absorbance at 260 nm. […] Real-time quantitative PCR (RT-qPCR) were performed on cDNA obtained as described above using a high through put system (Biomek 3000, Beckman & Coulter, Fullerton, USA) and a Lightcycler 480 (Roche/Hitachi, Basel, Switzerland) with SYBR Green Master mix+kit (Eurogentec, Philadelphia, USA). […] Values were expressed as ratio of RNA levels relative to control mice (diets with 0 mg of OEA/kg/body weight) using ΔΔ(Ct) (Livak K J & Schmittgen T D, 2001, Methods 25:402-8). Gene expression of the following genes was measured (abbreviation and GenBank Accession shown in parentheses). […]

[2] = system: Fatty acid transporter/cluster of differentiation 36 (FAT/CD 36); test: Real-time PCR gene expression in peripheral tissues: FAT/CD36; conditions: C57bl6j mice, high fat diet, 100 mg/kg/body weight in diet, 5 weeks
Experimental: as §1
(§4) Animals, diet, and experimental design. Adult male C57bl6j mice purchased at 8 weeks of age were individually housed and maintained ad libitum on high fat diet and water for 2 weeks. Seven mice were randomly allocated in 3 groups and fed with a high fat diet (lipids represented 50% of daily energy) for 2 weeks. For one kilogram, the composition of the high fat diet was: 235 g casein, 201 g saccharose, 3.5 g L-cystine, 85 g starch, 116 g maltodextrin, 60 g cellulose, 12 g vitamins mix (AIN-93M, UPAE, Jouy-en-Josas, France), 51.5 g mineral mix (AIN-93Vx, UPAE, Jouy-en-Josas, France), and 236 g lard. Then, either OEA or KDS 5104 was added to the diet at a concentration of 100 mg/kg/body weight. The mice were kept under treatment for 5 weeks.
(§5) Sampling. At the end of the experimental period, mice were sacrificed by blood drawing (cardiac puncture) after anesthesia with isoflurane. Plasma was obtained by centrifugation (1,000 g for 10 min at 4° C.). Mesenteric, epididymal, inguinal and peritoneal adipose depots, as well as liver, stomach, small intestine mucosa, pancreas, and gastrocnemian muscle were removed and frozen into liquid nitrogen. Plasma, urine, feces, and organ samples were kept at −80° C. until analysis.
(§6) RNA extraction and gene expression. Total RNA from liver, intestine mucous membrane, adipose tissues, gastrocnemian muscle, pancreas and stomach were extracted with TRIzol reagent (Invitrogen, Carlsbad, USA) according to the manufacturer's instruction. The RNA concentration was determined on nanodrop from the absorbance at 260 nm. Retro-transcription PCRs to synthesize cDNA were performed using an Applied Biosystem Thermal Cycler 2720 and Superscript II (Invitrogen, Carlsbad, USA) according to manufacturer's protocol. Real-time quantitative PCR (RT-qPCR) were performed on cDNA obtained as described above using a high through put system (Biomek 3000, Beckman & Coulter, Fullerton, USA) and a Lightcycler 480 (Roche/Hitachi, Basel, Switzerland) with SYBR Green Master mix+kit (Eurogentec, Philadelphia, USA). Primers for the selected genes were generated using online informatics assistance from the Lightcycler manufacturer (Roche). Databases used to identify the genes were (1) the NCBI database (GenBank) and (2) the IHOP (Information Hyperlinked over Protein) database (www.ihop-net.org/UniPub/iHOP/bng/). Values were expressed as ratio of RNA levels relative to control mice (diets with 0 mg of OEA/kg/body weight) using ΔΔ(Ct) (Livak K J & Schmittgen T D, 2001, Methods 25:402-8). Gene expression of the following genes was measured (abbreviation and GenBank Accession shown in parentheses).
Statistical analysis. Results are presented as means±standard error of the means (SEM). Statistical analysis of physiological parameters and gene expression data was performed by one-way ANOVA on Statview software (SAS Institute, Cary, USA). Daily food intake was analyzed using two-way ANOVA on Statview software. Statistical significance was set up at the P<0.05 level, the P<0.01 level and the P<0.001 level. For statistical analysis of the gene expression data, values were calculated relative to 18S expression for each mouse and gene.

[3] = system: overall gene expression pattern; test: Multivariate statistical analysis of overall gene expression pattern; conditions: C57bl6j mice, high fat diet, 100 mg/kg/body weight in diet, 5 weeks
Experimental: as §1, §2, §3

[4] = system: Uncoupling protein 2 (UCP2); test: Real-time PCR gene expression in peripheral tissues: UCP2; conditions: muscle; C57bl6j mice, high fat diet, 100 mg/kg/body weight in diet, 5 weeks
Experimental: as §1, §2, §3

[5] = system: Cannabinoid receptor 1 (CB 1); test: Real-time PCR gene expression in peripheral tissues: CB1; conditions: C57bl6j mice, high fat diet, 100 mg/kg/body weight in diet, 5 weeks
Experimental: as §1, §4, §5, §6
(§7) Statistical analysis. […] Statistical analysis of physiological parameters and gene expression data was performed by one-way ANOVA on Statview software (SAS Institute, Cary, USA). Daily food intake was analyzed using two-way ANOVA on Statview software. Statistical significance was set up at the P<0.05 level, the P<0.01 level and the P<0.001 level. For statistical analysis of the gene expression data, values were calculated relative to 18S expression for each mouse and gene.

[6] = system: Stearoyl-Coenzyme A desaturase 1 (SCD 1); test: Real-time PCR gene expression in peripheral tissues: SCD1; conditions: C57bl6j mice, high fat diet, 100 mg/kg/body weight in diet, 5 weeks
Experimental: as §1, §4, §5, §6, §7

[7] = system: Adiponectin; test: Real-time PCR gene expression in peripheral tissues: adiponectin; conditions: C57bl6j mice, high fat diet, 100 mg/kg/body weight in diet, 5 weeks
Experimental: as §1, §4, §5
(§8) RNA extraction and gene expression. Total RNA from liver, intestine mucous membrane, adipose tissues, gastrocnemian muscle, pancreas and stomach were extracted with TRIzol reagent (Invitrogen, Carlsbad, USA) according to the manufacturer's instruction. The RNA concentration was determined on nanodrop from the absorbance at 260 nm. […] Real-time quantitative PCR (RT-qPCR) were performed on cDNA obtained as described above using a high through put system (Biomek 3000, Beckman & Coulter, Fullerton, USA) and a Lightcycler 480 (Roche/Hitachi, Basel, Switzerland) with SYBR Green Master mix+kit (Eurogentec, Philadelphia, USA). […] Values were expressed as ratio of RNA levels relative to control mice (diets with 0 mg of OEA/kg/body weight) using ΔΔ(Ct) (Livak K J & Schmittgen T D, 2001, Methods 25:402-8). Gene expression of the following genes was measured (abbreviation and GenBank Accession shown in parentheses).
(§9) Statistical analysis. […] Daily food intake was analyzed using two-way ANOVA on Statview software. […] For statistical analysis of the gene expression data, values were calculated relative to 18S expression for each mouse and gene.

[8] = system: Fasting induced adipocyte factor (Fiaf); test: Real-time PCR gene expression in peripheral tissues: Fiaf; conditions: C57bl6j mice, high fat diet, 100 mg/kg/body weight in diet, 5 weeks
Experimental: as §1, §4, §5, §6, §7

[9] = system: Leptin; test: Real-time PCR gene expression in peripheral tissues: leptin; conditions: C57bl6j mice, high fat diet, 100 mg/kg/body weight in diet, 5 weeks
Experimental: as §1, §4, §5, §6, §7

[10] = system: Visfatin; test: Real-time PCR gene expression in peripheral tissues: visfatin; conditions: C57bl6j mice, high fat diet, 100 mg/kg/body weight in diet, 5 weeks
Experimental: as §1, §4, §5, §8, §9

CCCCCCCC/C=C\CCCCCCCC(=O)N[C@H](C)CO [KDS 5104, (Z)—(R)-9-octadecenamide, N-(2-hydroxyethyl, 1-methyl)]
PCSK9 l, ratio of RNA levels relative to control mice [1]: 1.34
FAT/CD36 at ep, ratio of RNA levels relative to control mice ([2]; epidydimal adipose tissue): −2.24
FAT/CD36 l, ratio of RNA levels relative to control mice ([2]; liver): 0.88
FAT/CD36 at per, ratio of RNA levels relative to control mice ([2]; peritoneal adipose tissue): 1.01
FAT/CD36 i, ratio of RNA levels relative to control mice ([2]; proximal intestine): 1.83
overall gene expression pattern (multivariate statistical analysis) [3]: significant shift
UCP2 m, ratio of RNA levels relative to control mice [4]: 1.11
CB1 at ep, ratio of RNA levels relative to control mice ([5]; epidydimal adipose tissue): −1.48
CB1 at per, ratio of RNA levels relative to control mice ([5]; peritoneal adipose tissue): −3.00
CB1 i, ratio of RNA levels relative to control mice ([5]; proximal intestine): −1.25
SCD 1 at ep, ratio of RNA levels relative to control mice ([6]; epidydimal adipose tissue): 1.24
SCD1 l, ratio of RNA levels relative to control mice ([6]; liver): −1.91
SCD 1 at per, ratio of RNA levels relative to control mice ([6]; peritoneal adipose tissue): 1.51
adiponectin at ep, ratio of RNA levels relative to control mice ([7]; epidydimal adipose tissue): −1.02
adiponectin at per, ratio of RNA levels relative to control mice ([7]; peritoneal adipose tissue): −1.52
Fiaf at ep, ratio of RNA levels relative to control mice ([8]; epidydimal adipose tissue): 0.46
Fiaf at per, ratio of RNA levels relative to control mice ([8]; peritoneal adipose tissue): 2.79
Fiaf i, ratio of RNA levels relative to control mice ([8]; proximal intestine): 0.68
leptin at ep, ratio of RNA levels relative to control mice ([9]; epidydimal adipose tissue): 1.35
leptin at per, ratio of RNA levels relative to control mice ([9]; peritoneal adipose tissue): −1.32
leptin s, ratio of RNA levels relative to control mice ([9]; stomach): −1.02
visfatin at ep, ratio of RNA levels relative to control mice ([10]; epidydimal adipose tissue): −1.08
visfatin at per, ratio of RNA levels relative to control mice ([10]; peritoneal adipose tissue): −1.10
